Data taken from PubChem BioAssay AID1963826 (Molecular Pharmacology Branch, DTP, NCI, 2024).

Test system: 926638-142-R-J1-PDC complex spheroid viability
Experiment: Anticancer human tumor 926638-142-R-J1-PDC patient-derived endometrial carcinoma cell line growth inhibition [POLQ]
Conditions: for IC50: curve of first compound; for viability, T/C: stronger effect = lower value; active = viability on the fitted dose curve at most 10% of control; inactive = the rest
Procedure, shortened: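 Three-cell-type spheroids modelling solid tumor plus stroma served as the readout system; POL inhibitors were tested individually and in combination, concentration ranges set by clinical Cmax where known.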

[1] = second compound 0.0316 µM, first compound 0.0316 µM
[2] = second compound 0.0316 µM, first compound 0.1 µM
[3] = second compound 0.0316 µM, first compound 0.316 µM
[4] = second compound 0.0316 µM, first compound 1 µM
[5] = second compound 0.0316 µM, first compound 3.16 µM
[6] = second compound 0.0316 µM, first compound 10 µM
[7] = second compound 0.1 µM, first compound 0.0316 µM
[8] = second compound 0.1 µM, first compound 0.1 µM
[9] = second compound 0.1 µM, first compound 0.316 µM
[10] = second compound 0.1 µM, first compound 1 µM
[11] = second compound 0.1 µM, first compound 3.16 µM
[12] = second compound 0.1 µM, first compound 10 µM
[13] = second compound 0.316 µM, first compound 0.0316 µM
[14] = second compound 0.316 µM, first compound 0.1 µM
[15] = second compound 0.316 µM, first compound 0.316 µM
[16] = second compound 0.316 µM, first compound 1 µM
[17] = second compound 0.316 µM, first compound 3.16 µM
[18] = second compound 0.316 µM, first compound 10 µM
[19] = second compound 1 µM, first compound 0.0316 µM
[20] = second compound 1 µM, first compound 0.1 µM
[21] = second compound 1 µM, first compound 0.316 µM
[22] = second compound 1 µM, first compound 1 µM
[23] = second compound 1 µM, first compound 3.16 µM
[24] = second compound 1 µM, first compound 10 µM
[25] = second compound 3.16 µM, first compound 0.0316 µM
[26] = second compound 3.16 µM, first compound 0.1 µM
[27] = second compound 3.16 µM, first compound 0.316 µM
[28] = second compound 3.16 µM, first compound 1 µM
[29] = second compound 3.16 µM, first compound 3.16 µM
[30] = second compound 3.16 µM, first compound 10 µM
[31] = second compound 10 µM, first compound 0.0316 µM
[32] = second compound 10 µM, first compound 0.1 µM
[33] = second compound 10 µM, first compound 0.316 µM
[34] = second compound 10 µM, first compound 1 µM
[35] = second compound 10 µM, first compound 3.16 µM
[36] = second compound 10 µM, first compound 10 µM
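Also: spheroids exposed to drugs for one week before readout.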
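For viability, T/C in this document: percent viability relative to DMSO vehicle control wells set as 100%.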

CCc1cc2c(N3CCc4c(cc(Cn5ccnc5)cc4-c4cn(C)nc4C(F)(F)F)C3=O)cc(C)nc2c(OC)n1 + COC1C(OC(N)=O)C(O)C(Oc2ccc3c(O)c(NC(=O)c4ccc(O)c(CC=C(C)C)c4)c(=O)oc3c2C)OC1(C)C
inactive: viability, T/C [1] 79.3% | viability, T/C [2] 65.2% | viability, T/C [3] 49.6% | viability, T/C [4] 42.6% | viability, T/C [5] 33.4% | viability, T/C [6] 23.4% | viability, T/C [7] 72.5% | viability, T/C [8] 73% | viability, T/C [9] 46.9% | viability, T/C [10] 27.6% | viability, T/C [11] 26% | viability, T/C [12] 23.8% | viability, T/C [13] 68% | viability, T/C [14] 52% | viability, T/C [15] 52.7% | viability, T/C [16] 43.6% | viability, T/C [17] 31.1% | viability, T/C [18] 23.5% | viability, T/C [19] 88.8% | viability, T/C [20] 60.7% | viability, T/C [21] 46.9% | viability, T/C [22] 31.2% | viability, T/C [23] 28.8% | viability, T/C [24] 28.9% | viability, T/C [25] 60.1% | viability, T/C [26] 58.4% | viability, T/C [27] 47.1% | viability, T/C [28] 35.8% | viability, T/C [29] 27.6% | viability, T/C [30] 21.6% | viability, T/C [31] 66.9% | viability, T/C [32] 65.8% | viability, T/C [33] 62.3% | viability, T/C [34] 43.1% | viability, T/C [35] 29.7% | viability, T/C [36] 25%
313 nM: IC50 (second compound 0.316 µM)
400 nM: IC50 (second compound 0.0316 µM)
667 nM: IC50 (second compound 10 µM)
277 nM: IC50 (second compound 0.1 µM)
244 nM: IC50 (second compound 3.16 µM)
214 nM: IC50 (second compound 1 µM)

CCc1cc2c(N3CCc4c(cc(Cn5ccnc5)cc4-c4cn(C)nc4C(F)(F)F)C3=O)ccnc2c(OC)n1 + COC1C(OC(N)=O)C(O)C(Oc2ccc3c(O)c(NC(=O)c4ccc(O)c(CC=C(C)C)c4)c(=O)oc3c2C)OC1(C)C
inactive: viability, T/C [1] 81.8% | viability, T/C [2] 60.3% | viability, T/C [3] 46.7% | viability, T/C [4] 38.5% | viability, T/C [5] 28% | viability, T/C [6] 25.9% | viability, T/C [7] 81.9% | viability, T/C [8] 63.8% | viability, T/C [9] 54.2% | viability, T/C [10] 40.9% | viability, T/C [11] 25.8% | viability, T/C [12] 22.7% | viability, T/C [13] 77.7% | viability, T/C [14] 57.7% | viability, T/C [15] 52.6% | viability, T/C [16] 43% | viability, T/C [17] 28.6% | viability, T/C [18] 26.6% | viability, T/C [19] 91.7% | viability, T/C [20] 60.2% | viability, T/C [21] 46.5% | viability, T/C [22] 45% | viability, T/C [23] 22.5% | viability, T/C [24] 26.1% | viability, T/C [25] 85.2% | viability, T/C [26] 54.2% | viability, T/C [27] 48.5% | viability, T/C [28] 38.5% | viability, T/C [29] 28.1% | viability, T/C [30] 21.1% | viability, T/C [31] 79.1% | viability, T/C [32] 64.5% | viability, T/C [33] 47% | viability, T/C [34] 40.1% | viability, T/C [35] 32% | viability, T/C [36] 25.9%
382 nM: IC50 (second compound 0.1 µM)
225 nM: IC50 (second compound 3.16 µM)
258 nM: IC50 (second compound 1 µM)
299 nM: IC50 (second compound 10 µM)
332 nM: IC50 (second compound 0.316 µM)
242 nM: IC50 (second compound 0.0316 µM)
